Where two headings read alike, the source gives them in different places.
Columns and labels:
[1] = molecular target: T1, Human muscarinic receptor M2 (Homo sapiens, UniProt P08172); experiment: Human muscarinic receptor assay M2, [3H]AF-DX 384 binding; conditions: for inhibition at 1 µM: read-out: percent inhibition of the control radioligand specific binding, M2
T1 construct: host or cells: cell membrane homogenates
T1 sequence (P08172 1-466): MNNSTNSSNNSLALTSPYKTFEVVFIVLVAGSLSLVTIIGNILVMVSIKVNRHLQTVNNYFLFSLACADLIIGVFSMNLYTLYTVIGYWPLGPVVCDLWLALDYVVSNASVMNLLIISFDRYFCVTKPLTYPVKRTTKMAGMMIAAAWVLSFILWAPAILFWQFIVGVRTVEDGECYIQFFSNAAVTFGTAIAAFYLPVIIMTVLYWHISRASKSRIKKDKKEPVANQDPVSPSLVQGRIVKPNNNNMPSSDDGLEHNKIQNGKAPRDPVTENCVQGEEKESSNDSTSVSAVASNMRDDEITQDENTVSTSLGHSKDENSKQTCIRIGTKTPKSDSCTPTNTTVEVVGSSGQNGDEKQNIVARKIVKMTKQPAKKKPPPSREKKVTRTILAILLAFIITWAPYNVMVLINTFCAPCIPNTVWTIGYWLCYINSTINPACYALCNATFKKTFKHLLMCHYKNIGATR
Description: (§1) Human Muscarinic Receptor Assay
(§2) Cell membrane homogenates (60 μg protein) are incubated for 60 min at 22° C. with 2 nM [3H]AF-DX 384 in the absence or presence of the test compound in a buffer containing 50 mM Tris-HCl (pH 7.4), 120 mM NaCl, 5 mM KCl, 5 mM MgCl2 and 1 mM EDTA. Nonspecific binding is determined in the presence of 1 μM atropine. Following incubation, the samples are filtered rapidly under vacuum through glass fiber filters (GF/B, Packard) presoaked with 0.3% PEI and rinsed several times with ice-cold 50 mM Tris-HCl using a 96-sample cell harvester (Unifilter, Packard). The filters are dried then counted for radioactivity in a scintillation counter (Topcount, Packard) using a scintillation cocktail (Microscint 0, Packard). The results are expressed as a percent inhibition of the control radioligand specific binding. The standard reference compound is methoctramine, which is tested in each experiment at several concentrations to obtain a competition curve from which its Ki and IC50 are calculated.

[2] = molecular target: T2, Human muscarinic receptor M3 (Homo sapiens, UniProt P20309); experiment: Human muscarinic receptor assay M3, [3H]4-DAMP binding; conditions: for Ki: 0.2 nM [3H]4-DAMP, cell membrane homogenates
T2 construct: host or cells: cell membrane homogenates
T2 sequence (P20309 whole entry): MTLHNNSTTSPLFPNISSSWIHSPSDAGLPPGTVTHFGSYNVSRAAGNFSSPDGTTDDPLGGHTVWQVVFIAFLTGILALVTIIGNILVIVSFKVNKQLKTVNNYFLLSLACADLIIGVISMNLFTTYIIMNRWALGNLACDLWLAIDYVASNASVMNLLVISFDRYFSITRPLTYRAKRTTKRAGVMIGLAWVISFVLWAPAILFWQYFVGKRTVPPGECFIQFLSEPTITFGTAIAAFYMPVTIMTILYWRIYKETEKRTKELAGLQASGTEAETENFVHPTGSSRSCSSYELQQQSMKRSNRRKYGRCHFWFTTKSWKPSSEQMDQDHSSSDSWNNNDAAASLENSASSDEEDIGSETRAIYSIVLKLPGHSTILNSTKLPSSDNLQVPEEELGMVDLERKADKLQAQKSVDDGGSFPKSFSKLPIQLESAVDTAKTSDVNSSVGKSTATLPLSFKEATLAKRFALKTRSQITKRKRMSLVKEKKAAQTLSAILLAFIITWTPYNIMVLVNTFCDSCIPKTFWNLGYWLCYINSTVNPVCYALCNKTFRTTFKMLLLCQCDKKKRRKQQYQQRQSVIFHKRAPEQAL
Description: as §1
(§3) Cell membrane homogenates (8 μg protein) are incubated for 60 min at 22° C. with 0.2 nM [3H]4-DAMP in the absence or presence of the test compound in a buffer containing 10 mM Tris-HCl (pH 7.4) and 2 mM EDTA. Nonspecific binding is determined in the presence of 1 μM atropine. Following incubation, the samples are filtered rapidly under vacuum through glass fiber filters (GF/B, Packard) presoaked with 0.3% PEI and rinsed several times with ice-cold 50 mM Tris-HCl using a 96-sample cell harvester (Unifilter, Packard). The filters are dried then counted for radioactivity in a scintillation counter (Topcount, Packard) using a scintillation cocktail (Microscint 0, Packard). The results are expressed as a percent inhibition of the control radioligand specific binding. The standard reference compound is 4-DAMP, which is tested in each experiment at several concentrations to obtain a competition curve from which its Ki and IC50 are calculated.

[3] = molecular target: T3, Human muscarinic receptor M5 (Homo sapiens, UniProt P08912); experiment: Human muscarinic receptor assay M5, [3H]4-DAMP binding
T3 construct: host or cells: cell membrane homogenates
T3 sequence (P08912 1-532): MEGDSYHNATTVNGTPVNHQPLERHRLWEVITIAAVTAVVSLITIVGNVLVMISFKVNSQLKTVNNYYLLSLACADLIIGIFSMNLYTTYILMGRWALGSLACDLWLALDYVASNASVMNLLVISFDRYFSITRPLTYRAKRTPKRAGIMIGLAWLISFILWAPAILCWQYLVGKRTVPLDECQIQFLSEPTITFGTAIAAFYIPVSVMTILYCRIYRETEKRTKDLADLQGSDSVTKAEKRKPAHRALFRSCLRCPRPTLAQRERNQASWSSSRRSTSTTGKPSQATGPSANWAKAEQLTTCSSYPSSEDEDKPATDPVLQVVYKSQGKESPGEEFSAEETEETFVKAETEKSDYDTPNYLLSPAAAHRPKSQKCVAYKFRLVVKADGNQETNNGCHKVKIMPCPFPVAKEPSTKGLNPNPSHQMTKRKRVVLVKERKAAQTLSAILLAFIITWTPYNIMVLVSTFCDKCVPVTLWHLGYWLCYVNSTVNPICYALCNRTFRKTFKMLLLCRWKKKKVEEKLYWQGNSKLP
Description: as §1
as §3, with “(15” for “(8”, “0.3” for “0.2”

[4] = molecular target: T4, Human muscarinic receptor M4 (Homo sapiens, UniProt P08173); experiment: Human muscarinic receptor assay M4, [3H]4-DAMP binding
T4 construct: host or cells: cell membrane homogenates
T4 sequence (P08173 1-479): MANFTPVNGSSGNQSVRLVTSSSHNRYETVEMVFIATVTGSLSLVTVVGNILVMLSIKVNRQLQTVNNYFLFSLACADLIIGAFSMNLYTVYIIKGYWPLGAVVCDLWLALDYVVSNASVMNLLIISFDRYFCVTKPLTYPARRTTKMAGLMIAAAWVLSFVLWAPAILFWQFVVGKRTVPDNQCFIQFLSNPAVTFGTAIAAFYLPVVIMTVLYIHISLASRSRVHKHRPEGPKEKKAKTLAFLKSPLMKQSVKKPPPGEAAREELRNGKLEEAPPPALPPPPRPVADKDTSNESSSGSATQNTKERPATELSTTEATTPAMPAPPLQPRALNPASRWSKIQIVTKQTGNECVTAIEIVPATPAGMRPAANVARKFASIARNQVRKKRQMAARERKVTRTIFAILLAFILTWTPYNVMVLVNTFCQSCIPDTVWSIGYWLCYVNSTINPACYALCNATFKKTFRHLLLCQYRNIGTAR
Description: as §1
as §3, with “(16” for “(8”

[5] = molecular target: T5, Human muscarinic receptor M1 (Homo sapiens, UniProt P11229); experiment: Human muscarinic receptor assay M1, [3H]pirenzepine binding; conditions: 2 nM [3H]pirenzepine, cell membrane homogenates
T5 construct: host or cells: cell membrane homogenates
T5 sequence (P11229 1-460): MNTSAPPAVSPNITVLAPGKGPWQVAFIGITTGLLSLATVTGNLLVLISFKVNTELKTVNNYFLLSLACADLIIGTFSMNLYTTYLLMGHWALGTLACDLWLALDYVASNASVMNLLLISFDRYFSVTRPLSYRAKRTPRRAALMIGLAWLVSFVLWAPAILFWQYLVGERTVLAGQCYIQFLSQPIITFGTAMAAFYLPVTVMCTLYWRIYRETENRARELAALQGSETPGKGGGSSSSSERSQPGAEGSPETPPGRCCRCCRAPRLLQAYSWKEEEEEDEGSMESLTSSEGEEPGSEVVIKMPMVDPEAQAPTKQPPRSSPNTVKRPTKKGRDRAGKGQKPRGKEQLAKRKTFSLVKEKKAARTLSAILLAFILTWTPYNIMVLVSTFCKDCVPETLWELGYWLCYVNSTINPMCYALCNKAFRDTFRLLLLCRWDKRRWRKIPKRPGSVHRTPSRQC
Description: as §1
as §2, with “(45” for “(60”, “[3H]pirenzepine” for “[3H]AF-DX 384”, “pirenzepine,” for “methoctramine,”

[6] = topical 1% drop; cited from earlier work
[7] = 0.3 nM [3H]4-DAMP, cell membrane homogenates, read-out: Ki M5

SMILES | Ki [1] [nM] | Ki [2] [nM] | Ki [3] [nM] | Ki [4] [nM] | Ki [5] [nM] | inhibition at 1 µM [1] [%] | Ki [3, 7] [nM] | inhibition at 1 µM ([4]; read-out: percent inhibition of the control radioligand specific binding, M4) [%] | efficacy in the treatment of myopia [6] | side effects [6] | Ki ([1]; 2 nM [3H]AF-DX 384, cell membrane homogenates, read-out: Ki M2) [nM] | inhibition at 1 µM ([2]; @ 1 μM, read-out: percent inhibition of the control radioligand specific binding, M3) [%] | Ki ([4]; 0.2 nM [3H]4-DAMP, cell membrane homogenates, read-out: Ki M4) [nM]
CCC(CO)(C(=O)OC1CC2CCC(C1)N2C)c1ccccc1 (stereo not shown) | 35 | 1.3 | 1.1 | 0.71 | 4.4 |  |  |  |  |  |  |  | 
CN1C2CCC1CC(OC(=O)C(CO)(Cc1ccc(F)cc1)c1ccccc1)C2 (stereo not shown) |  | 310 | 160 | 200 | 300 | < 50 |  |  |  |  |  |  | 
COc1ccc(CC(CO)(C(=O)OC2CC3CCC(C2)N3C)c2ccccc2)cc1 (stereo not shown) |  | 610 |  |  | 570 | < 50 | 320 | < 50 |  |  |  |  | 
CN1C2CCC1CC(OC(=O)C(C)(CO)c1cccs1)C2 (stereo not shown) | 7.9 | 0.78 | 0.71 | 0.39 | 2.5 |  |  |  |  |  |  |  | 
COCC(C)(C(=O)OC1CC2CCC(C1)N2C)c1ccccc1 (stereo not shown) | 72 | 13 | 8.5 | 7.4 | 19 |  |  |  |  |  |  |  | 
CN1C2CCC1CC(OC(=O)C(C)(CO)c1ccccc1)C2 (stereo not shown) | 11 | 2 | 0.68 | 0.58 | 3.1 |  |  |  |  |  |  |  | 
CN1[C@@H]2CC[C@H]1C[C@@H](OC(=O)C(CO)c1ccccc1)C2 (stereo partly shown) [atropine] |  |  |  |  |  |  |  |  | effective | numerous side effects were reported, including mydriasis (dilation of the pupil) and blurring of near vision due to cycloplegia |  |  | 
CN1C2CCC1CC(OC(=O)C(CO)(CO)c1ccccc1)C2 (stereo not shown) | 54 | 4.1 | 4.5 | 3 | 17 |  |  |  |  |  |  |  | 
CN1C2CCC1CC(OC(=O)C(CO)(CC(F)(F)F)c1ccccc1)C2 (stereo not shown) |  | 2 | 1.9 | 1.7 | 8.2 |  |  |  |  |  | 240 |  | 
CN1C2CCC1CC(OC(=O)C(CO)(Cc1ccccc1)c1ccccc1)C2 (stereo not shown) |  |  |  |  | 600 | < 50 | 280 |  |  |  |  | < 50 | 230
CN1C2CCC1CC(OC(=O)C(C)(CF)c1ccccc1)C2 (stereo not shown) | 110 | 14 | 7.2 | 5.8 | 27 |  |  |  |  |  |  |  | 
CN1C2CCC1CC(NC(=O)C(C)(CO)c1ccccc1)C2 (stereo not shown) |  | 150 | 52 | 83 | 230 | < 50 |  |  |  |  |  |  | 
CN1C2CCC1CC(OC(=O)C(CO)(CC1CC1)c1ccccc1)C2 (stereo not shown) | 39 | 1.3 | 0.99 | 0.57 | 3.4 |  |  |  |  |  |  |  | 
CN1C2CCC1CC(OC(=O)C(F)(CO)c1ccccc1)C2 (stereo not shown) | 15 | 2.9 | 0.71 | 0.48 | 3.5 |  |  |  |  |  |  |  | 

— patent publication US12247028B2, “Azabicyclo and diazepine derivatives” (Alcon Inc., priority 2017, dated 2025)
